This is an account of results in ChEMBL document CHEMBL1201862, “PubChem BioAssay data set” (2004).

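Values below derive from 48-hour exposures of cells grown in 96-well plates, with endpoints linearly interpolated between the two concentrations bracketing the appropriate inhibition level. The concentration for 50% growth inhibition is given as GI50.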 Active and inactive are the calls of the source. Cut-off read from the data, not from the text of the source: active = GI50 up to about 1.1 µM and inactive = higher.

Some test systems named below: PC-3; OVCAR-3; MDA-MB-231; Malme-3M; NCI-H23; SF-295; NCI/ADR-RES; UACC-257; SK-MEL-2; T47D; M14; LOX IMVI; IGROV-1; ACHN; CCRF-CEM; HCC 2998; HCT-116; NCI-H460; RPMI-8226; Hs-578T.
Common to all, as to assay: inhibition of tumour cell growth, NCI panel, 48 h

Take `COc1ccc(-c2nc(SCC(=O)NNC(=S)Nc3ccccc3)[nH]c2-c2ccc(OC)cc2)cc1`: the GI50 in the assay with PC-3 is 25.8 µM (inactive); in the assay with OVCAR-3, 14.3 µM (inactive); with MDA-MB-231 it was 27.2 µM (inactive); in the assay on Malme-3M, 52.2 µM (inactive); in the assay on NCI-H23, 21.4 µM (inactive); with SF-295 it was 19.1 µM (inactive). The GI50 is 74.5 µM (inactive) with NCI/ADR-RES; 20.8 µM (inactive) in the assay on UACC-257; 18.4 µM (inactive) in the assay with SK-MEL-2; 16.6 µM (inactive) in the assay with T47D; 17.7 µM (inactive) in the assay with M14; 19.6 µM (inactive) in the assay with LOX IMVI. Further, the GI50 in the assay on IGROV-1 is 33.8 µM (inactive); in the assay on ACHN, 24.5 µM (inactive); in the assay on CCRF-CEM it was 22.7 µM (inactive); in the assay on HCC 2998, 14 µM (inactive); in the assay on HCT-116, 25.8 µM (inactive); in the assay on NCI-H460 it was 14.8 µM (inactive).
As to `CCCC(=O)Nc1cc(/C=C/C(=O)N2CC(CCl)c3c2cc([N+](=O)[O-])c2ccccc32)n(C)c1` (configuration not stated), the GI50 in the assay on PC-3 was 3.73 µM (inactive); in the assay with OVCAR-3, > 100 µM (inactive); in the assay with MDA-MB-231, > 100 µM (inactive); with NCI-H23 it was 1 µM (active); with SF-295, > 52.1 µM (inactive); in the assay with NCI/ADR-RES it was 8.93 µM (inactive). Further, the GI50 is > 100 µM (inactive) in the assay on UACC-257; > 100 µM (inactive) in the assay on SK-MEL-2; > 100 µM (inactive) in the assay with T47D; > 100 µM (inactive) in the assay on M14; > 100 µM (inactive) in the assay with IGROV-1; 1.32 µM (inactive) in the assay on ACHN. For the same compound, the GI50 in the assay on CCRF-CEM was 3.84 µM (inactive); in the assay on HCC 2998, 14.5 µM (inactive); in the assay on HCT-116 it was 11.9 µM (inactive); with NCI-H460 it was 7.57 µM (inactive); with RPMI-8226 it was 0.579 µM (active).
On to `O=C1CC(c2ccccc2)C2(C(=O)NC(=S)NC2=O)C(c2ccccc2)C1` (configuration not stated), for which the GI50 with PC-3, in the assay with OVCAR-3, in the assay with MDA-MB-231, with Malme-3M, in the assay with NCI-H23 and with SF-295 was > 75 µM (inactive) throughout. Moreover, the GI50 in the assay with NCI/ADR-RES, with UACC-257, in the assay on SK-MEL-2, in the assay on T47D, in the assay on M14 and with LOX IMVI was > 75 µM (inactive) each time. The GI50 with IGROV-1, in the assay on ACHN, with CCRF-CEM, with HCC 2998, in the assay with HCT-116 and in the assay with NCI-H460 was > 75 µM (inactive) each time. For the same compound, in the assay with RPMI-8226, the GI50 is 38.7 µM (inactive).
On to `CC(C)=CC(C)C(C(O)CCC1(c2ccoc2)OCCO1)S(=O)(=O)c1ccccc1` (configuration not stated), for which the GI50 in the assay with PC-3, in the assay on OVCAR-3, with MDA-MB-231, in the assay on Malme-3M, with NCI-H23 and in the assay with SF-295 was > 100 µM (inactive) each time. Also, the GI50 is 91.6 µM (inactive) in the assay with NCI/ADR-RES; > 100 µM (inactive) in the assay with UACC-257; > 100 µM (inactive) in the assay on SK-MEL-2; > 100 µM (inactive) in the assay on T47D; > 100 µM (inactive) in the assay on M14; > 100 µM (inactive) in the assay with LOX IMVI. Besides, the GI50 in the assay with IGROV-1 was 54.5 µM (inactive); in the assay on ACHN, > 100 µM (inactive); in the assay on CCRF-CEM, > 100 µM (inactive); in the assay with HCC 2998 it was > 100 µM (inactive); with HCT-116, > 100 µM (inactive); with NCI-H460, > 100 µM (inactive). Further, the GI50 in the assay with RPMI-8226 was > 100 µM (inactive).
With `CC(C)(C)OC(=O)N1C(c2cccnc2)=CC[C@H]2C3CC=C(c4cccnc4)[C@@]3(C)CC[C@@H]21` (some centres not stated), the GI50 was 4.6 µM (inactive) in the assay with PC-3; 3.44 µM (inactive) in the assay on OVCAR-3; 5.64 µM (inactive) in the assay on Hs-578T; 3.44 µM (inactive) with Malme-3M; 3.4 µM (inactive) in the assay with NCI-H23; 3.13 µM (inactive) in the assay on SF-295. Also, the GI50 in the assay with NCI/ADR-RES was 8.45 µM (inactive); with UACC-257, 3.23 µM (inactive); with SK-MEL-2, 2.95 µM (inactive); with T47D, 4.16 µM (inactive); with M14, 4.75 µM (inactive); with LOX IMVI, 2.71 µM (inactive). For the same compound, the GI50 is 4.16 µM (inactive) in the assay with IGROV-1; 3.46 µM (inactive) in the assay with ACHN; 3.99 µM (inactive) with CCRF-CEM; 4.04 µM (inactive) in the assay on HCT-116; 3.51 µM (inactive) in the assay with NCI-H460; 1.82 µM (inactive) in the assay on RPMI-8226.
`CC(C)c1ccccc1SC1CC(=O)CC(Sc2ccccc2C(C)C)C12O[C@H](c1ccccc1)[C@@H](c1ccccc1)O2` (some centres not stated): the GI50 in the assay on PC-3 is 58.9 µM (inactive); in the assay with OVCAR-3, 32.2 µM (inactive); with MDA-MB-231, 34.8 µM (inactive); in the assay on NCI-H23, 36.8 µM (inactive); in the assay on SF-295, > 100 µM (inactive); in the assay on NCI/ADR-RES it was 47 µM (inactive). In addition, the GI50 in the assay with UACC-257 was > 100 µM (inactive); in the assay with SK-MEL-2, 35.6 µM (inactive); in the assay with T47D it was 28.6 µM (inactive); in the assay on M14 it was 21.5 µM (inactive); with LOX IMVI it was 30.1 µM (inactive); in the assay on IGROV-1, 34.1 µM (inactive). For the same compound, the GI50 in the assay on ACHN was 30.3 µM (inactive); with CCRF-CEM, 13.4 µM (inactive); in the assay with HCC 2998, 36 µM (inactive); with HCT-116 it was 32.7 µM (inactive); in the assay with NCI-H460, > 100 µM (inactive); in the assay with RPMI-8226, 17.3 µM (inactive).
Consider `COc1cccc(C=C2N=C(c3ccccc3)N(n3c(-c4ccccc4)nc4ccccc4c3=O)C2=O)c1`, for which the GI50 was 41.2 µM (inactive) with PC-3; 57.9 µM (inactive) with MDA-MB-231; 48.2 µM (inactive) with Hs-578T; > 100 µM (inactive) with Malme-3M; 71.9 µM (inactive) in the assay on NCI-H23; 57.4 µM (inactive) in the assay on SF-295. Moreover, the GI50 was 30.3 µM (inactive) in the assay with UACC-257; 26.5 µM (inactive) in the assay with T47D; 45.1 µM (inactive) in the assay with M14; 62.5 µM (inactive) in the assay with LOX IMVI; 30.1 µM (inactive) in the assay on IGROV-1; 42.3 µM (inactive) in the assay on ACHN. Besides, the GI50 was 38.7 µM (inactive) in the assay on CCRF-CEM; 64.6 µM (inactive) in the assay on HCC 2998; 46 µM (inactive) in the assay on HCT-116; 35.2 µM (inactive) with NCI-H460; 40.2 µM (inactive) with RPMI-8226.
In the case of `CC1C(OC2O[C@@H]3O[C@@]4(C)CC[C@H]5[C@H](C)CC[C@@H](C2C)[C@@]35O4)O[C@@H]2O[C@@]3(C)CC[C@H]4[C@H](C)CC[C@@H]1[C@@]24O3` (some centres not stated), the GI50 with PC-3, in the assay with OVCAR-3, in the assay on MDA-MB-231, with Hs-578T, in the assay on Malme-3M and in the assay with NCI-H23 was > 50 µM (inactive) in each case. The GI50 with SF-295, in the assay with UACC-257, in the assay with SK-MEL-2, with T47D, with M14 and in the assay with LOX IMVI was > 50 µM (inactive) each time. Besides, the GI50 was 1.65 µM (inactive) with ACHN; > 50 µM (inactive) in the assay with CCRF-CEM; > 50 µM (inactive) in the assay with HCC 2998; > 50 µM (inactive) with HCT-116; > 50 µM (inactive) with NCI-H460; > 50 µM (inactive) with RPMI-8226.
As for `CN1CCC2(CC1)/C(=N/C1CCCCC1)NC(=O)N2c1ccccc1`, the GI50 with MDA-MB-231, in the assay with Hs-578T, with Malme-3M, with NCI-H23, in the assay with SF-295 and with NCI/ADR-RES was > 100 µM (inactive) throughout. Also, the GI50 in the assay with UACC-257, in the assay on T47D, in the assay with M14, in the assay with IGROV-1, with ACHN and in the assay with CCRF-CEM was > 100 µM (inactive) each time. The GI50 in the assay with HCC 2998, in the assay on HCT-116, in the assay with NCI-H460 and in the assay with RPMI-8226 was > 100 µM (inactive) in each case.
With `CCC1(CCSC(=N)N)C(=O)NC(=O)NC1=O`, the GI50 with PC-3, with OVCAR-3, with MDA-MB-231, in the assay with Hs-578T, in the assay on Malme-3M and in the assay on NCI-H23 was > 100 µM (inactive) throughout. In addition, the GI50 in the assay with SF-295, with NCI/ADR-RES, with UACC-257, in the assay with SK-MEL-2, in the assay on M14 and in the assay with LOX IMVI was > 100 µM (inactive) throughout. Also, the GI50 in the assay on IGROV-1, in the assay on ACHN, in the assay with CCRF-CEM, in the assay on HCC 2998, in the assay on HCT-116 and in the assay with NCI-H460 was > 100 µM (inactive) each time. Moreover, the GI50 in the assay with RPMI-8226 is > 100 µM (inactive).
Consider `COCn1cnc2c(=O)nc(SC)n(-c3ccccc3)c21`, for which the GI50 with OVCAR-3, in the assay on MDA-MB-231, with Hs-578T, in the assay on Malme-3M, in the assay with NCI-H23 and in the assay on SF-295 was > 100 µM (inactive) throughout. The GI50 in the assay on NCI/ADR-RES, with UACC-257, with SK-MEL-2, with T47D, in the assay on M14 and in the assay with LOX IMVI was > 100 µM (inactive) throughout. Moreover, the GI50 in the assay with IGROV-1, in the assay on ACHN, in the assay on CCRF-CEM, in the assay with HCC 2998, with HCT-116 and in the assay with RPMI-8226 was > 100 µM (inactive) throughout.
